Here are results for 13 compounds from ChEMBL document CHEMBL5154841, “Optimization of NAMPT activators to achieve in vivo neuroprotective efficacy” (Eur J Med Chem, 2022).

A short description of series [1]: Cytoprotective activity against FK866- induced cell death in human U2OS cells assessed as increase in viable cells by measuring relative AUC at 10 uM incubated for […] by fluorometric analysis relative to NAT. Type of series: functional.
The nature of series [2]: Half life in CD-1 mouse at 1 mg/kg, iv measured after 24 hrs by LC-MS/MS analysis. It counts as ADME, organism-based. Particulars: in vivo.
The nature of series [3]: Half life in CD-1 mouse at 30 mg/kg, ip measured after 24 hrs by LC-MS/MS analysis. It counts as ADME, organism-based. Particulars: in vivo.
The nature of series [4]: Half life in CD-1 mouse at 30 mg/kg, po measured after 24 hrs by LC-MS/MS analysis. Type of series: ADME, organism-based. Particulars: in vivo.
Series [5] can be described thus: Tmax in CD-1 mouse at 30 mg/kg, ip measured after 24 hrs by LC-MS/MS analysis. It counts as ADME, organism-based. Particulars: in vivo.
The nature of series [6]: Tmax in CD-1 mouse at 30 mg/kg, po measured after 24 hrs by LC-MS/MS analysis. Type of series: ADME, organism-based. Particulars: in vivo.
The nature of series [7]: Cmax in CD-1 mouse at 30 mg/kg, ip measured after 24 hrs by LC-MS/MS analysis. It counts as ADME, organism-based. The arrangement: time 24 hrs, dose 30 mg/kg, route ip. Particulars: in vivo.
A short description of series [8]: Cmax in CD-1 mouse at 30 mg/kg, po measured after 24 hrs by LC-MS/MS analysis. Type of series: ADME, organism-based. Also noted: dose 30 mg/kg, time 24 hrs, route po. Particulars: in vivo.
Series [9] can be described thus: AUClast in CD-1 mouse at 1 mg/kg, iv measured after 24 hrs by LC-MS/MS analysis. It counts as ADME, organism-based. Also noted: dose 1 mg/kg, time 24 hrs, route iv. To be noted: in vivo.
The nature of series [10]: AUClast in CD-1 mouse at 30 mg/kg, ip measured after 24 hrs by LC-MS/MS analysis. Type of series: ADME, organism-based. Also noted: dose 30 mg/kg, time 24 hrs, route ip. Particulars: in vivo.
Series [11] can be described thus: AUClast in CD-1 mouse at 30 mg/kg, po measured after 24 hrs by LC-MS/MS analysis. Type of series: ADME, organism-based. Also noted: dose 30 mg/kg, time 24 hrs, route po. Particulars: in vivo.
Series [12] can be described thus: AUCinfinity in CD-1 mouse at 1 mg/kg, iv measured after 24 hrs by LC-MS/MS analysis. It counts as ADME, organism-based. Also noted: time 24 hrs, dose 1 mg/kg, route iv. To be noted: in vivo.
The nature of series [13]: AUCinfinity in CD-1 mouse at 30 mg/kg, ip measured after 24 hrs by LC-MS/MS analysis. Also noted: dose 30 mg/kg, time 24 hrs, route ip. Particulars: in vivo. It counts as ADME, organism-based.
Series [14] is described as follows: AUCinfinity in CD-1 mouse at 30 mg/kg, po measured after 24 hrs by LC-MS/MS analysis. It counts as ADME, organism-based. Also noted: dose 30 mg/kg, time 24 hrs, route po. Particulars: in vivo.
Series [15] in a line: Clearance in CD-1 mouse at 1 mg/kg, iv measured after 24 hrs by LC-MS/MS analysis. Type of series: ADME, organism-based. To be noted: in vivo.
Series [16] is described as follows: Volume of distribution at steady state in CD-1 mouse at 1 mg/kg, iv measured after 24 hrs by LC-MS/MS analysis. Particulars: in vivo, read-out: Vdss. Type of series: ADME, organism-based.
Series [17] in a line: Bioavailability in CD-1 mouse at 30 mg/kg, ip measured after 24 hrs by LC-MS/MS analysis. It counts as ADME, organism-based. Particulars: in vivo.
Series [18] is described as follows: Oral bioavailability in CD-1 mouse at 30 mg/kg measured after 24 hrs by LC-MS/MS analysis. It counts as ADME, organism-based. To be noted: in vivo.
The test system of another series is U2OS. Put plainly: Cytotoxicity against human U2OS cells assessed as effect on cell viability up to 10 uM measured after 72 hrs by Celltiter-glo luminescent cell viability assay. It counts as toxicity, cell-based. A general note: In ATP-based viability assays light output follows the ATP content of the culture.
In a further series the test system is T98G. Put plainly: Cytotoxicity against human T98G cells assessed as effect on cell viability up to 10 uM measured after 72 hrs by Celltiter-glo luminescent cell viability assay. Type of series: toxicity, cell-based.
In another series the test system is SH-SY5Y. The series can be described thus: Cytotoxicity against human SH-SY5Y cells assessed as effect on cell viability up to 10 uM measured after 72 hrs by Celltiter-glo luminescent cell viability assay. Type of series: toxicity, cell-based.
For a further series, the system named is HepG2. The series can be described thus: Cytotoxicity against human HepG2 cells assessed as effect on cell viability up to 10 uM measured after 72 hrs by Celltiter-glo luminescent cell viability assay. It counts as toxicity, cell-based. Particulars: hepg2, 72 h.
Series [19] is described as follows: Toxicity in C57BL/6J mouse assessed as body weight loss at 1 to 3 mg/kg, iv qd administered for 2 weeks and measured every day. Type of series: organism-based. To be noted: in vivo, 336 h, dose 1-3 mg/kg.

As for `CC(C)(C)c1cc(Cl)c(F)cc1OCC(=O)Nc1ccc(O)cc1`, the Activity in series [1] was 40%.
Turning to `O=C(COc1ccccc1)Nc1ccc(O)cc1`, the Activity in series [1] was determined as 10%.
With `CC(C)(C)c1ccc(F)cc1OCC(=O)Nc1ccc(O)cc1`, the Activity in series [1] is given as 171%.
For the compound `COC(=O)c1ccc(OCC(=O)Nc2ccc(O)cc2)c(C(C)(C)C)c1`, the Activity in [1] is 133%.
Regarding `CC(C)(C)c1cc(Cl)ccc1OCC(=O)Nc1ccc(O)cc1`, in series [1], the Activity is reported as 32%.
For `COc1ccc(OCC(=O)Nc2ccc(O)cc2)c(C(C)(C)C)c1`, the Activity in series [1] came out at 138%.
Same read-out and setting: with `CC(C)(C)c1cc(C#N)ccc1OCC(=O)Nc1ccc(O)cc1` the figure was 126%; with `CC(C)(C)c1cccc(F)c1OCC(=O)Nc1ccc(O)cc1`, 235%.
In general, half-life refers to how long it takes for the measured level to halve. Low values mean rapid decline, high ones slow decline. As a reminder, the Tmax is the time at which the peak concentration occurs. As usually defined, the Cmax is the highest concentration seen after dosing. The AUC(0-t) is the area under the concentration-time curve up to a stated or last time point. High values mean more exposure, low ones less exposure. By AUC(0-inf) is commonly meant total exposure, with the tail of the curve extrapolated. A higher AUC(0-inf) goes with more exposure. In general, clearance refers to a measure of how efficiently the substance is removed, as volume per time. Lower therefore signals a low capacity for elimination. Broadly, the bioavailability is the share of a dose that reaches the circulation, judged against a reference dose that is usually intravenous. High values mean much systemic uptake, low ones little systemic uptake. Consider `CC(C)(C)c1ccccc1OCC(=O)Nc1ccc(O)cc1`, for which the half-life is 17.4 min in [2], 180 min in [3] and 178 min in series [4]. Further, the Tmax in [5] turned out to be 19.8 min; in [6] it was 15 min. In addition, the Cmax in [7] was 1520 ng/mL; in [8], 1620 ng/mL. The exposure AUC(0-t) at 24 h in [9] amounted to 212 ng·h/mL; in [10] it was 2510 ng·h/mL; in [11], 2120 ng·h/mL. For the same compound, the values for the total exposure AUC(0-inf) in series [12], in [13] and in series [14] were 214 ng·h/mL, 2520 ng·h/mL and 2130 ng·h/mL, respectively. This compound registered a clearance in series [15] of 78.8 mL/min/kg. For the same compound, the Vd in [16] came out at 1.3 L/kg. Moreover, the bioavailability in series [17] worked out at 39.2%; in series [18], 33.2%.
In the case of `CC(C)(C)c1cc(Br)ccc1OCC(=O)Nc1ccc(O)cc1`, the Activity in [1] was 40%.
With `CC(C)(C)c1cc(O)ccc1OCC(=O)Nc1ccc(O)cc1`, in series [1], the Activity came out at 149%.
With `CC(C)(C)c1cccc(C#N)c1OCC(=O)Nc1ccc(O)cc1`, the Activity result (with U2OS; in the series with T98G; in the series on SH-SY5Y; in the series on HepG2; in series [19]) was “Non-Toxic” each time. In addition, the half-life in series [2] was 10.8 min; in [3] it was 63 min; in series [4], 80.4 min. The Tmax in series [5] and in series [6] was 15 min throughout. Moreover, the peak concentration (Cmax) in series [7] turned out to be 1560 ng/mL; in [8], 188 ng/mL. Moreover, the AUC(0-t) at 24 h was determined as 183 ng·h/mL in [9], 1330 ng·h/mL in [10] and 388 ng·h/mL in series [11]. Also, the results for the AUC(0-inf) in [12], in series [13] and in series [14] were 185 ng·h/mL, 1340 ng·h/mL and 395 ng·h/mL, respectively. In series [15], the clearance was found to be 90.4 mL/min/kg. Moreover, the Vd in series [16] is 1.13 L/kg. The bioavailability in series [17] was determined as 24.2%; in series [18], 7.05%.
Turning to `CC(C)(C)c1ccc(C#N)cc1OCC(=O)Nc1ccc(O)cc1`, in series [1], the Activity is 206%.
